Reference: patent US10017504B2, “Piperidine isoxazole and isothiazole orexin receptor antagonists” (MERCK SHARP & DOHME CORP., priority 2014, dated 2018)

Target: human orexin-2 receptor (Homo sapiens (Human), UniProt O43614)
Assay: FLIPR Ca2+ Flux Assay, orexin-2 receptor
Format: cell-based
Settings: CHO cells expressing the human orexin-2 receptor; agonist 70 pM Ala-6,12 human orexin-A; read-out: hOX2 FLIPR IC50
Experimental: In a typical experiment the OX1 and OX2 receptor antagonistic activity of the compounds of the present invention was determined in accordance with the following experimental method. For intracellular calcium measurements, Chinese hamster ovary (CHO) cells expressing the rat orexin-1 receptor or the human orexin-2 receptor, are grown in Iscove's modified DMEM containing 2 mM L-glutamine, […], 1% hypoxanthine-thymidine supplement, 100 U/ml penicillin, 100 μg/ml streptomycin and 10% heat-inactivated fetal calf serum (FCS). The cells are seeded at 20,000 cells/well into Becton-Dickinson black 384-well clear bottom sterile plates coated with poly-D-lysine. All reagents are from GIBCO-Invitrogen Corp. The seeded plates are incubated overnight at 37° C. and 5% CO2. Ala-6,12 human orexin-A as the agonist is prepared as a 1 mM stock solution in 1% bovine serum albumin (BSA) and diluted in assay buffer (HBSS containing 20 mM HEPES, 0.1% BSA and 2.5 mM probenecid, pH7.4) for use in the assay at a final concentration of 70 pM. Test compounds are prepared as 10 mM stock solution in DMSO, then diluted in 384-well plates, first in DMSO, then assay buffer. On the day of the assay, cells are washed 3 times with 100 μl assay buffer and then incubated for 60 min (37° C., 5% CO2) in 60 μl assay buffer containing 1 μM Fluo-4AM ester, 0.02% pluronic acid, and 1% BSA. The dye loading solution is then aspirated and cells are washed 3 times with 100 μl assay buffer. 30 μl of that same buffer is left in each well. Within the Fluorescent Imaging Plate Reader (FLIPR, Molecular Devices), test compounds are added to the plate in a volume of 25 μl, incubated for 5 min and finally 25 μl of agonist is added. Fluorescence is measured for each well at 1 second intervals for 5 minutes and the height of each fluorescence peak is compared to the height of the fluorescence peak induced by 70 pM Ala-6,12 orexin-A with buffer in place of antagonist. […] The intrinsic orexin receptor antagonist activity of a compound which may be used in the present invention may be determined by these assays.

human orexin-2 receptor, sequence (O43614 whole entry): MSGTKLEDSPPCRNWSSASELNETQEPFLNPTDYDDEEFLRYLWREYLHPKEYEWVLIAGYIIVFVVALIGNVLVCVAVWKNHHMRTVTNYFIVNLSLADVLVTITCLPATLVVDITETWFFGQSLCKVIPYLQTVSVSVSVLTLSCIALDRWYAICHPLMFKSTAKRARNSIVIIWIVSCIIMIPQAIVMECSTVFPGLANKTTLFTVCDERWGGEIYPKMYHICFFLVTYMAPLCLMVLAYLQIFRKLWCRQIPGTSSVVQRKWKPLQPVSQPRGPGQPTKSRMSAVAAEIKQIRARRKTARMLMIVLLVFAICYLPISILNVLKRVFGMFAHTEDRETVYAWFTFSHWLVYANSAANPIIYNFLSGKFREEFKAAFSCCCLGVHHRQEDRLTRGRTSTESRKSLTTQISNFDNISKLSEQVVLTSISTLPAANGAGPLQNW

Row | Compound | IC50
1 | COC(=O)c1ccccc1C(=O)N1C[C@H](c2cc(C(C)(C)O)no2)CC[C@H]1C [Example 30, Methyl 2-({(2R,5R)-5-[3-(1-hydroxy-1-methylethyl)isoxazol-5-yl]-2-methylpiperidin-1-yl}carbonyl)benzoate] | 251 nM
2 | C[C@@H]1CC[C@@H](c2cc([C@@H](O)C(F)(F)F)no2)CN1C(=O)c1ccccc1-n1nccn1 [Example 40, (1R)-2,2,2-Trifluoro-1-{5-[(3R,6R)-6-methyl-1-{[2-(2H-1,2,3-triazol-2-yl)phenyl]carbonyl}piperidin-3-yl]isoxazol-3-yl}ethanol] | 11 nM
3 | C[C@@H]1CC[C@@H](c2cc(C(C)(C)O)no2)CN1C(=O)c1cc(F)ccc1-n1nccn1 [Example 24, 2-{5-[(3R,6R)-1-{[5-Fluoro-2-(2H-1,2,3-triazol-2-yl)phenyl]carbonyl}-6-methylpiperidin-3-yl]isoxazol-3-yl}propan-2-ol] | 215 nM
4 | C[C@@H]1CC[C@@H](c2cc(C(C)(C)O)sn2)CN1C(=O)c1cccnc1OCC(F)F [Example 69, 2-{3-[(3R,6R)-1-{[2-(2,2-Difluoroethoxy)pyridin-3-yl]carbonyl}-6-methylpiperidin-3-yl]isothiazol-5-yl}propan-2-ol] | 42.8 nM
5 | C[C@@H]1CC[C@@H](c2cc(C(C)(C)O)no2)CN1C(=O)c1ccccc1-n1nccn1 [Example 20, 2-{5-[(3R,6R)-6-Methyl-1-{[2-(2H-1,2,3-triazol-2-yl)phenyl]carbonyl}piperidin-3-yl]isoxazol-3-yl}propan-2-ol] | 30.3 nM
6 | C[C@@H]1CC[C@@H](c2cc(C(C)(C)O)on2)CN1C(=O)c1cc(Cl)ccc1-n1nccn1 [Example 3, (5-Chloro-2-(2H-1,2,3-triazol-2-yl)phenyl)((2R,5R)-5-(5-(2-hydroxypropan-2-yl)isoxazol-3-yl)-2-methylpiperidin-1-yl)methanone] | 1430 nM
7 | C[C@@H]1CC[C@@H](c2cc(C(C)(C)O)no2)CN1C(=O)c1ccccc1OCC(F)(F)F [Example 36, 2-{5-[(3R,6R)-6-Methyl-1-{[2-(2,2,2-trifluoroethoxy)phenyl]carbonyl}piperidin-3-yl]isoxazol-3-yl}propan-2-ol] | 212 nM
8 | C[C@@H]1CC[C@@H](c2cc(C(C)(C)O)sn2)CN1C(=O)c1ccccc1OC(F)(F)F [Example 68, 2-{3-[(3R,6R)-6-Methyl-1-{[2-(trifluoromethoxy)phenyl]carbonyl}piperidin-3-yl]isothiazol-5-yl}propan-2-ol] | 22.8 nM
9 | C[C@@H]1CC[C@@H](c2cc([C@H](O)C(F)(F)F)no2)CN1C(=O)c1ccccc1-c1ncccn1 [Example 51, (1S)-2,2,2-trifluoro-1-(5-{(3R,6R)-6-methyl-1-[(2-pyrimidin-2-ylphenyl)carbonyl]piperidin-3-yl}isoxazol-3-yl)ethanol] | 146 nM
10 | C[C@@H]1CC[C@@H](c2cc(C(C)(C)O)on2)CN1C(=O)c1ccccc1-n1nccn1 [Example 1, 2-{3-[(3R,6R)-6-Methyl-1-{[2-(2H-1,2,3-triazol-2-yl)phenyl]carbonyl}piperidin-3-yl]isoxazol-5-yl}propan-2-ol] | 46.9 nM
11 | CCC(C)(O)c1cc([C@@H]2CC[C@@H](C)N(C(=O)c3ccccc3-n3nccn3)C2)on1 (stereo partly drawn) [Example 54, 2-{5-[(3R,6R)-6-Methyl-1-{[2-(2H-1,2,3-triazol-2-yl)phenyl]carbonyl}piperidin-3-yl]isoxazol-3-yl}butan-2-ol] | 76.1 nM
12 | C[C@@H]1CC[C@@H](c2cc(C(C)(C)O)on2)CN1C(=O)c1ccccc1C1(C#N)CC1 [Example 2, 1-(2-((2R,5R)-5-(5-(2-Hydroxypropan-2-yl)isoxazol-3-yl)-2-methylpiperidine-1-carbonyl)phenyl)cyclopropanecarbonitrile] | 104 nM
13 | C[C@@H]1CC[C@@H](c2cc(C(C)(C)O)sn2)CN1C(=O)c1cscc1-c1ncccn1 [Example 65, 2-(3-{(3R,6R)-6-Methyl-1-[(4-pyrimidin-2-ylthiophen-3-yl)carbonyl]piperidin-3-yl}isothiazol-5-yl)propan-2-ol] | 46.8 nM
14 | C[C@@H]1CC[C@@H](c2cc(C(C)(C)O)on2)CN1C(=O)c1cccnc1OCC(F)(F)F [Example 7, ((2R,5R)-5-(5-(2-Hydroxypropan-2-yl)isoxazol-3-yl)-2-methylpiperidin-1-yl)(2-(2,2,2-trifluoroethoxy)pyridin-3-yl)methanone] | 227 nM
15 | C[C@@H]1CC[C@@H](c2cc(C(C)(O)C3CC3)on2)CN1C(=O)c1ccccc1-n1nccn1 (single isomer, unassigned) [Example 10] | 15.6 nM
16 | C[C@@H]1CC[C@@H](c2cc([C@@H](O)C(F)(F)F)no2)CN1C(=O)c1ccsc1-c1ncccn1 [Example 49, (1R)-2,2,2-Trifluoro-1-(5-{(3R,6R)-6-methyl-1-[(2-pyrimidin-2-ylthiophen-3-yl)carbonyl]piperidin-3-yl}isoxazol-3-yl)ethanol] | 112 nM
17 | C[C@@H]1CC[C@@H](c2cc(C(C)(C)O)sn2)CN1C(=O)c1ccccc1C1(C#N)CC1 [Example 62, 1-[2-({(2R,5R)-5-[5-(1-Hydroxy-1-methylethyl)isothiazol-3-yl]-2-methylpiperidin-1-yl}carbonyl)phenyl]cyclopropanecarbonitrile] | 19.1 nM
18 | C[C@@H]1CC[C@@H](c2cc([C@@H](O)C(F)(F)F)no2)CN1C(=O)c1ccccc1C1(C#N)CC1 [Example 44, 1-(2-{[(2R,5R)-2-Methyl-5-{3-[(1R)-2,2,2-Trifluoro-1-hydroxyethyl]isoxazol-5-yl}piperidin-1-yl]carbonyl}phenyl)cyclopropanecarbonitrile] | 26.8 nM
19 | COCCc1ccccc1C(=O)N1C[C@H](c2cc(C(C)(C)O)sn2)CC[C@H]1C [Example 70, 2-{3-[(3R,6R)-1-{[2-(2-methoxyethyl)phenyl]carbonyl}-6-methylpiperidin-3-yl]isothiazol-5-yl}propan-2-ol] | 935 nM
20 | C[C@@H]1CC[C@@H](c2cc(C(C)(C)O)no2)CN1C(=O)c1ccccc1C1(C#N)CC1 [Example 29, 1-[2-({(2R,5R)-5-[3-(1-Hydroxy-1-methylethyl)isoxazol-5-yl]-2-methylpiperidin-1-yl}carbonyl)phenyl]cyclopropanecarbonitrile] | 8.8 nM
21 | C[C@@H]1CC[C@@H](c2cc(C(C)(C)O)sn2)CN1C(=O)c1ccccc1-c1ncccn1 [Example 63, 2-(3-{(3R,6R)-6-Methyl-1-[(2-pyrimidin-2-ylphenyl)carbonyl]piperidin-3-yl}isothiazol-5-yl)propan-2-ol] | 42.3 nM
22 | C[C@@H]1CC[C@@H](c2cc([C@](C)(O)C(F)F)on2)CN1C(=O)c1ccccc1-n1nccn1 [Example 18, (2S)-1,1-Difluoro-2-{3-[(3R,6R)-6-methyl-1-{[2-(2H-1,2,3-triazol-2-yl)phenyl]carbonyl}piperidin-3-yl]isoxazol-5-yl}propan-2-ol] | 92 nM
23 | C[C@@H]1CC[C@@H](c2cc(C3(O)CCC3)on2)CN1C(=O)c1ccccc1-n1nccn1 [Example 13, 1-{3-[(3R,6R)-6-Methyl-1-{[2-(2H-1,2,3-triazol-2-yl)phenyl]carbonyl}piperidin-3-yl]isoxazol-5-yl}cyclobutanol] | 635 nM
24 | CC(C)C(C)(O)c1cc([C@@H]2CC[C@@H](C)N(C(=O)c3ccccc3-n3nccn3)C2)no1 (single isomer, unassigned) [Example 17] | 24.5 nM
25 | C[C@@H]1CC[C@@H](c2cc(C(C)(C)O)no2)CN1C(=O)c1ccccc1-n1ncnn1 [Example 32, 2-{5-[(3R,6R)-6-Methyl-1-{[2-(2H-tetrazol-2-yl)phenyl]carbonyl}piperidin-3-yl]isoxazol-3-yl}propan-2-ol] | 124 nM
26 | C[C@@H]1CC[C@@H](c2cc([C@H](O)C(F)(F)F)no2)CN1C(=O)c1ccccc1C1(C#N)CC1 [Example 45, 1-(2-{[(2R,5R)-2-Methyl-5-{3-[(1S)-2,2,2-trifluoro-1-hydroxyethyl]isoxazol-5-yl}piperidin-1-yl]carbonyl}phenyl)cyclopropanecarbonitrile] | 41.2 nM
27 | CC(C)Oc1ncccc1C(=O)N1C[C@H](c2cc(C(C)(C)O)on2)CC[C@H]1C [Example 6, ((2R,5R)-5-(5-(2-Hydroxypropan-2-yl)isoxazol-3-yl)-2-methylpiperidin-1-yl)(2-isopropoxypyridin-3-yl)methanone] | 1840 nM
28 | CC(C)C(C)(O)c1cc([C@@H]2CC[C@@H](C)N(C(=O)c3ccccc3-n3nccn3)C2)no1 (single isomer, unassigned) [Example 16] | 24.3 nM
29 | C[C@@H]1CC[C@@H](c2cc(C(C)(C)O)no2)CN1C(=O)c1ccccc1-c1ccccc1 [Example 26, 2-{5-[(3R,6R)-1-(Biphenyl-2-ylcarbonyl)-6-methylpiperidin-3-yl]isoxazol-3-yl}propan-2-ol] | 22.9 nM
